Results as given in patent US9790233B2, “Compositions and methods of modulating 15-PGDH activity” (CASE WESTERN RESERVE UNIVERSITY, priority 2012, dated 2017).
Read-outs that look alike come from different tables or passages of the source.

How the values were obtained:
[1] = system: wild-type mouse bone marrow; experiment: Hematopoietic colonies from bone marrow treated ex vivo; format: cell-based; conditions: 1 uM, ex vivo on ice 2 hours
Source text: Treated marrow is again then plated into methylcellulose for counting of hematopoietic colonies.

15-PGDH protein [2] = biological target: T1, 15-PGDH protein (Homo sapiens (Human), UniProt P15428); experiment: Inhibition of enzymatic activity of recombinant 15-PGDH in vitro (tritium transfer from PGE2 or NADH fluorescence); format: biochemical; conditions: for IC50: read-out: IC50
[3] = system: 15-PGDH luciferase fusion construct in V9m reporter cell line; experiment: 15-PGDH-luciferase fusion gene reporter induction, V9m cells; format: cell-based; conditions: % induction of luciferase activity over basal level
[4] = system: 15-PGDH luciferase fusion construct in LS174T reporter cell line; experiment: 15-PGDH-luciferase fusion gene reporter induction, LS174T cells; format: cell-based; conditions: Homo sapiens
[5] = system: 15-PGDH luciferase fusion construct in Vaco503 reporter cell line; experiment: 15-PGDH-luciferase fusion gene reporter induction, V503 cells; format: cell-based; conditions: read-out: V503-3H9-7 reporter activity, % ([…]), V503 reporter cells, […] compound, % induction of luciferase activity over basal level
[6] = system: 15-PGDH-luciferase fusion reporter in V9m, LS174T and V503 cells; experiment: 15-PGDH-luciferase fusion gene reporter induction, stated for the three cell line backgrounds together; format: cell-based; conditions: FIG. 1
15-PGDH protein [7] = biological target: T1, 15-PGDH protein; experiment: Shift of melting temperature of recombinant 15-PGDH (SYPRO Orange); format: binding; conditions: FIG. 14
A549 cells = experiment: PGE2 levels in the medium of IL1-beta stimulated A549 cells; format: cell-based;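 further: PGE2 in the collected culture medium quantified by enzyme immunoassay (ELISA), with data drawn from three independent experiments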
[8] = Metabolic stability with murine liver S9; format: in vitro ADME; conditions: mouse, liver S9 fraction; Murine S9 fraction, Phase I cofactors, 0-240 minutes
Protocol: SW054384 (2 mM in DMSO) was incubated with Murine S9 (Lot KWB) fraction and Phase I (NADPH Regenerating System) cofactors for 0-240 minutes. Reactions were quenched with a 1 mL (1:1) of MeOH/(+)IS/0.2% Formic Acid, vortexed for 15 seconds, incubated at RT for 10 minutes and spun for 5 minutes at 2400 rpms. […] Supernatant (800 μL) was transferred to an HPLC vial (w/out insert) and analyzed by HPLC/MS. A: dH2O+0.1% FA B: MeOH+0.1% FA
SW125991 (2 mM in DMSO) was incubated with Murine S9 (Lot KWB) fraction and Phase I (NADPH Regenerating System) cofactors for 0-240 minutes. Reactions were quenched with 1 mL (1:1) of methanol containing 0.2% formic acid and 100 ng/ml IS (IS final conc.=50 ng/ml). Samples were vortexed for 15 seconds, incubated at RT for 10 minutes and spun for 5 minutes at 2400 rpm. […] Supernatant (800 μL) was transferred to an HPLC vial (w/out insert). Analyzed by Qtrap 3200 mass spectrometer.

15-PGDH protein [9] = biological target: T1, 15-PGDH protein; experiment: 15-PGDH protein levels in treated cells (western blot, immuno-fluorescence); format: cell-based; conditions: […] compound for 48 hours; colon cell lines
15-PGDH mRNA = 15-PGDH mRNA levels by real-time PCR; format: cell-based; conditions: treated colon cancer cell lines

T1 sequence (P15428 whole entry, the tested form may be a part): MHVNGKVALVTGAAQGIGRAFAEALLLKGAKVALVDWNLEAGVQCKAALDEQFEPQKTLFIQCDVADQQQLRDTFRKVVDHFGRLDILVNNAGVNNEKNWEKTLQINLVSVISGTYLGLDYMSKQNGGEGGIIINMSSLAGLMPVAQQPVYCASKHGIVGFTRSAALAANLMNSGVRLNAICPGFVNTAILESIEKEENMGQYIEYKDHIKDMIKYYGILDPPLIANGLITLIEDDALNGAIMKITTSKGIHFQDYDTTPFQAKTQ

| SMILES | increase in bone marrow derived colonies relative to SW033291 [1] | IC50 higher than that of SW033291 (15-PGDH protein [2]) | IC50 (15-PGDH protein [2]; 15-PGDH-GST fusion protein, FIG. 11) | IC50 (15-PGDH protein [2]; fluorescent based assay, FIG. 12) | IC50 (15-PGDH protein [2]; tritium assay, FIG. 12) | activation at […] ([3]; read-out: V9M-SC3 Reporter activity ([…]) (%), V9m reporter cells, […] compound, read-out: V9M-SC3 Reporter activity (2.5 μM) (%)) | activation at […] ([3]; read-out: V9M-SC3 Reporter activity ([…]), %, V9m reporter cells, […] compound, read-out: V9M-SC3 Reporter activity (7.5 μM), %) | activation at […] ([4]; read-out: Ls174T-SC1 reporter activity, % ([…]), LS174T reporter cells, […] compound, % induction of luciferase activity over basal level, read-out: Ls174T-SC1 reporter activity, % (2.5 μM)) | activation at […] ([4]; read-out: Ls174T-SC1 reporter activity, % ([…]), LS174T reporter cells, […] compound, % induction of luciferase activity over basal level, read-out: Ls174T-SC1 reporter activity, % (7.5 μM)) | activation at […] ([5]; read-out: V503-3H9-7 reporter activity, % (2.5 μM)) | activation at […] ([5]; read-out: V503-3H9-7 reporter activity, % (7.5 μM)) | concentration of maximum reporter activity [6] | luciferase activity of cells expressing 15-PGDH luciferase fusion construct ([6]; V9m, LS174T, V503) | direct binding to recombinant 15-PGDH (melting temperature shift) (15-PGDH protein [7]) | lowering of PGE2 levels in media (A549 cells) | PGE2 levels in medium (A549 cells; compound added 24 hours before IL1-beta, maintained 26 hours with IL1-beta) | Decrease PGE-2 (IL-1beta-A549, %) (A549 cells; media of IL-1beta stimulated A549 cells) | half-life [8] | levels of 15-PGDH protein (western blot) (15-PGDH protein [9]) | 15-PGDH mRNA levels (real-time PCR) (15-PGDH mRNA) |
| --- | --- | --- | --- | --- | --- | --- | --- | --- | --- | --- | --- | --- | --- | --- | --- | --- | --- | --- | --- | --- |
| CCCCC[C@H](O)/C=C/[C@H]1[C@H](O)CC(=O)[C@@H]1C/C=C\CCCC(=O)O [PGE2, prostaglandin E2] | lesser increase |  |  |  |  |  |  |  |  |  |  |  |  |  |  |  |  |  |  |  |
| CCCCC(C)(C)[C@H](O)/C=C/[C@H]1[C@H](O)CC(=O)[C@@H]1C/C=C\CCCC(=O)O [dmPGE2, 16,16-dimethyl PGE2] | slightly greater increase |  |  |  |  |  |  |  |  |  |  |  |  |  |  |  |  |  |  |  |
| COc1ccc(OC)c(N(CC(=O)Nc2cccnc2)S(=O)(=O)c2ccccc2)c1 [SW054384] |  | 10,000 fold | 5 to 50 µM | 11 µM | 8.4 µM | 116% | 148% | 130% | 156% | 149% | 157% | 6.25 µM | increase luciferase activity | cannot be demonstrated to bind 15-PGDH | show activity in lowering PGE2 | lower level of PGE2 produced | 41.96% | 21.7 min | increase levels of 15-PGDH protein | do not in general alter 15-PGDH mRNA levels |
